Experiments:
Assay type in all cases: cell-based, human
[1] = tested on: Tamoxifen-cultured MCF7 cells; experiment: Tamoxifen-cultured MCF7 cell viability, sulforhodamine B assay; conditions: E2 100 nM, 72 h; for further reduction of viability elicited by Tamoxifen in presence of SER: Tamoxifen 5 μM, Tamoxifen-cultured MCF7
Method: (§1) Cells were fixed with 50% trichloroacetic acid for at least 2 h at 4 °C, washed with distilled and de-ionized water, air-dryed and stained 30 min with 0.4% sulforhodamine B in 1% acetic acid. Unbound dye was removed and 10 mM tris-HCl solution (pH 7.5) was added to dissolve the protein-bound dye. Cell survival was assessed by optical density determination at 510 nm using a microplate reader.
To further investigate the effect of SER79 and SER68 on Tamoxifen responsiveness and CTGF expression in MCF7 cells, we obtained - by a continuous treatment of 10 days with 1 μM Tamoxifen – a cellular model less sensitive to the drug (Tamoxifen-cultured MCF7). We observed that 20 μM SER79, 20 μM and 40 μM SER68, while not 5 μM SER79, reduced viability of Tamoxifen-cultured MCF7 cells by about 40% (adjp<0.01; Fig. 8a). […] However, in the presence of 20 μM SER79, 20 μM and 40 μM SER68, Tamoxifen elicited a further 40% reduction of viability, similar to that achieved in Tamoxifen-responsive MCF7 cells (adjp<0.01; Fig. 8b).
Fig. 8 Effect of SER79 and SER68 on Tamoxifen-cultured MCF7 cells. MCF7 cells were cultured in presence of Tamoxifen (1 μM) for 10 days. Estrogen-starved MCF7 and Tamoxifen-cultured MCF7 cells (48 h) were (a-c) treated with SER79 (20 μM, 5 μM) or SER68 (40 μ, 20 μM), (b) treated with Tamoxifen (5 μM) in presence of SER79 (20 μM, 5 μM) or SER68 (40 μM, 20 μM). All treatments were carried out in presence of E2 (100 nM) for 72 h. As positive control, the cells were treated with (a-c) E2 alone or (b) E2 in absence or in presence of SER (as indicated, dotted line). a,b Cell viability was assessed by sulforhodamine B assay (see Methods). The results were reported as percentage of viable cells compared to positive control, considered as maximum viability (100%). c mRNA levels of CTGF were determined by qPCR (see Methods and Table 1). Data were normalized on Ribosomal Protein S23 (Rps23) gene as internal standard and reported as CTGF mRNA levels in Tamoxifen-cultured MCF7 relative to those in MCF7 cells (dotted line). a-c Graphs represent the mean ± SD of at least three independent triplicate experiments. * denotes statistically significant values compared with (a,b) positive control (*adjp<0.05, ** adjp<0.01) or (c) MCF7 cells (*pval<0.05); # denotes statistically significant values compared with (b) cells treated with Tamoxifen in absence of SER or (c) untreated Tamoxifen-cultured MCF7 cells (#pval<0.01, ##pval<0.0001)

MCF7-R cells = experiment: Tamoxifen-resistant MCF7-R cell viability, sulforhodamine B assay; conditions: SER 20 μM; for effect on MCF7-R cells if used alone (viability): E2 100 nM, 72 h; for effect on viability of MCF7-R cells in co-treatment with Tamoxifen: Tamoxifen 5 μM, E2, 72 h
Method: as §1
MCF7 cells were cultured for 4 months in phenol-red free medium supplemented with 10% (C/S) FBS and continuously exposed to Tamoxifen (1 μM). […] To further validate the degree of drug resistance, the expression levels of ABCC1, ABCG1 and ABCG2 – members of ABC transporter family known as involved in multi-drug resistance – were evaluated by Quantitative Real-Time PCR (qPCR; see below) upon cell treatment with 5 μM Tamoxifen for 72 h.
Fig. 9 Effect of SER79 and SER68 on Tamoxifen-resistant (MCF7-R) cells. a Estrogen starved MCF7-R were treated with SER79 (20 μM, 5 μM) or SER68 (20 μM) in presence of E2 (100 nM). b Estrogen-starved MCF7-R were treated with Tamoxifen (5 μM) in presence of E2 and SER79 (20 μM) or SER68 (20 μM). a,b As positive control, the cells were treated with E2 alone, in absence or in presence of SER (dotted line). After 72 h, cell viability was assessed by sulforhodamine B assay (see Methods). The results were reported as percentage of viable cells compared to positive control, considered as maximum viability (100%). c mRNA levels of CTGF were determined by qPCR (see Methods and Table 1) in MCF7-R cells upon treatment with SER68 (20 μM). Data were normalized on Ribosomal Protein S23 (Rps23) gene as internal standard and reported as CTGF mRNA levels in MCF7-R. a-c Graphs represent the mean ± SD of at least three independent triplicate experiments. * denotes statistically significant values compared with (b) positive control or (c) MCF7 cells (*adjp<0.05; **adjp<0.001). # denotes statistically significant values compared with untreated MCF7-R (#pval<0.05) […]
Figure S3. Establishment of MCF7 Tamoxifen re sista n t(M C F7-R) cells. MCF7 cells were cultured with Tamoxifen (1µM), in absence of E2, for 4 months (M C F7-R). (a-b) MCF7 and MCF7-R cells were treated with in c re a s in gconcentration of Tamoxifen […]
As positive control, cells were treated with E2 alone. Cell viability was measured by sulforhodamine B assay (se e Methods). The re su ltswere re p o rte das percentage of viable cells compared to untreated cells, considered as maximum viability (100%). […]
(a ) * denotes statistically significant values compared with untreated cells […]
(§2) (1 picture or pasted object on this page, not shown here)

HT2C receptor = experiment: 5-HT2C protein levels, Western blot; conditions: 72 h, MCF7, Tamoxifen-cultured MCF7 and MCF7-R cells
Method: RIPA buffer (Promega, Madison, Wisconsin, USA) was used for proteins’ extraction. Lysates ([…] protein/sample) were blotted with anti-5HT2C (1:500). Total lysates were normalized using anti-Vinculin (1:10000). The autoradiographs shown were obtained by ECL kit (Bio-Rad, Hercules, CA, USA).
Figure S4. 5-HT2C protein in MCF7, Tamoxifen-cultured MCF7 and MCF-R cells in absence or in presence of SER.
Cells were treated with 5µM SER79 or 20µM SER68. Alter 72h, cell lysa te swere obtained and 5-HT2C protein le ve lswere measured by western blot analysis. Vinculin was used for protein le ve ls normalization. […]
as §2

Row | Structure (SMILES) | further reduction of viability elicited by Tamoxifen in presence of SER ([1]; SER 5 μM) | reduction of viability of Tamoxifen-cultured MCF7 cells ([1]; SER 20 μM alone) | further reduction of viability elicited by Tamoxifen in presence of SER ([1]; SER 20 μM) [%] | effect on MCF7-R cells if used alone (viability) (MCF7-R cells) | effect on viability of MCF7-R cells in co-treatment with Tamoxifen (MCF7-R cells) | change in protein levels of HT2C receptors upon SER treatment (HT2C receptor; 5 µM) | reduction of viability of Tamoxifen-cultured MCF7 cells ([1]; SER 40 μM alone) | further reduction of viability elicited by Tamoxifen in presence of SER ([1]; SER 40 μM) [%] | change in protein levels of HT2C receptors upon SER treatment (HT2C receptor; 20 µM)
1 | N#CN=C(NCCCN1CCN(C(c2ccc(F)cc2)c2ccc(F)cc2)CC1)c1ccccn1 [SER79] | No Tamoxifen effect was observed | about 40% | 40 | neither | No significant effect | no difference in protein levels | – | – | –
2 | O=C1C2C3C=CC(C3)C2C(=O)N1OCCN1CCN(c2ccc(Cl)c(Cl)c2)CC1 (stereo not shown) [SER68] | – | about 40% | 40 | neither | significantly reduced viability | – | about 40% | 40 | no difference in protein levels

— paper PMC8845285, “Serotoninergic receptor ligands improve Tamoxifen effectiveness on breast cancer cells” (BMC Cancer, 2022)
